What was measured:
[1] = tested on: S. aureus strain CCUG10778; assay: Growth profiling of S. aureus (absorbance at 600 nm); assay type: cell-based
Experimental: To assess whether our most promising compounds have a possibility of being potential antivirulent compounds, they were tested with pathogenic S. aureus bacteria to assess the peptidomimetic inhibitors for their ability to inhibit bacterial growth. Firstly, our compounds were incubated with S. aureus bacteria in a 96-well plate in Tryptic Soy Broth (TSB) medium, while we also included the reference compound used in the single-point in vitro inhibition studies. So far, the covalent binding thiadiazol reference compound was not tested in this respect, but was one of the most promising compounds identified in an earlier screening campaign.[42] The inhibitors were added at various concentrations, ranging from 2 μg mL^−1 to 128 μg mL^−1, and the absorbance at 600 nm was measured as an indication of their optical density (OD600) and by that the bacteria's ability to propagate in liquid media. In the negative control experiments, the bacteria consistently reached an OD600 of 0.6 between 6 and 12 hours (Fig. 3). […]
For the growth profiling experiments the S. aureus strain CCUG10778 was cultured overnight in sterile TSB medium and diluted 1:100 by adding 1 μL into TSB medium in a sterilized, clear polystyrene 96-well plate to a final assay volume of 100 μL. Subsequently, peptides were added to the bacteria from filter sterilized stocks in MQ-H2O to give 2, 8, 32 and 128 μg/ml final concentrations. Then, bacteria were incubated at 37 °C for 3, 6, 12, 24, 36 or 48 hours and their absorbance was measured at 600 nm using a Varioskan Lux microplate reader (Thermo Fisher Scientific, Waltham, MA, USA). All individual samples were carried out in triplicate. […]
Then, bacteria […]
were incubated at 37 °C for 24 hours and centrifuged for 3 minutes at 3000 rpm in an Eppendorf Microstar 30r centrifuge. The supernatant was discarded and the cells were washed once with sterilized PBS and centrifuged. 100 μL PBS-T (PBS + 0.1% Triton-X) was added to the cells for 15 minutes to induce cell membrane permeabilization. After removal of the PBS-T by centrifugation, 100 μL of 5 μM Sytox Green (Invitrogen, Waltham, MA, USA) solution in PBS

S. aureus = assay: Sytox Green fluorescence measurement of S. aureus incubated with inhibitors; assay type: cell-based; settings: for Fluorescence value (Sytox Green, 533 nm): 24 hours, control 294.0 ± 0.1
Experimental: To achieve this, S. aureus was again incubated with our peptidomimetic inhibitors, specifically, 18, 22, 23 and 24 at 8, 32 and 128 μg mL^−1 and harvested after 24 hours to ensure the bacteria reach their growth plateau. Peptide 24 was included to confirm the influence of the N-terminal benzyl group. The bacterial cells were permeabilized and their […] were labelled using Sytox Green and subsequently their fluorescence was measured quantitatively. […] Bacteria incubated with 32 and 128 μg mL^−1 of 18 as well as 128 μg mL^−1 of 22 were also imaged using fluorescence microscopy (Fig. 4). In the control sample, planktonic bacteria could be abundantly observed (Fig. 4a). While it was hard to distinguish the microscopy images for the less strong inhibition (Fig. 4b and c), it became evident from the sample with 128 μg mL^−1 of 18 that visually bacterial growth was affected as well (Fig. 4d) where the bacteria were much more sparsely distributed in the sample. […]
For the fluorescence experiments S. aureus was cultured overnight in sterile TSB medium and diluted 1:250 by adding 2.5 μL bacterial culture into TSB medium in sterilized 1.5 mL Eppendorf tubes to a final volume of 500 μL. Subsequently, peptides were added to the bacteria from filter sterilized stocks in MQ-H2O to give 8, 32 and 128 μg/ml final concentrations. Then, bacteria were incubated at 37 °C for 24 hours and centrifuged for 3 minutes at 3000 rpm in an Eppendorf Microstar 30r centrifuge. The supernatant was discarded and the cells were washed once with sterilized PBS and centrifuged. 100 μL PBS-T (PBS + 0.1% Triton-X) was added to the cells for 15 minutes to induce cell membrane permeabilization. After removal of the PBS-T by centrifugation, 100 μL of 5 μM Sytox Green (Invitrogen, Waltham, MA, USA) solution in PBS […]
was added and the cells were stained for 30 minutes, centrifuged and washed with PBS twice.
For the fluorescence measurements, the cells were resuspended with 100 μL of PBS and added in a sterilized, white plastic polystyrene 96-well plate and their fluorescence was measured by exciting the samples at 488nm and measuring the fluorescence intensity at 533 nm in a microplate reader. All individual samples were carried out in duplicate. For the fluorescence microscopy experiments, the cells were treated in the same, but resuspended in 10 μL of PBS and 5 μL of bacterial suspension was spotted on a glass target plate dipped in a melted solution of 1.2% agarose in Tris-HCl (50 mM) to ensure fixation of the sample. The sledes were covered by a cover glass and observed on an Axio Imager Z2m fluorescence microscope (Zeiss, Jena, Germany) at 100 times magnification at the emission wavelength of […]
Biofilm inhibition assays
For the biofilm inhibition experiments the S. aureus strain CCUG10778 was cultured overnight in sterile BHI broth. A sterilized, clear polystyrene 96-well plate was prepared by coating with plasma by addition of 20% of final assay volume rabbit plasma to the wells and incubating overnight at 4 °C. Then, the cultured strain was diluted 1:100 by adding 2 μL into BHI medium on the plasma coated plate to a total volume of 200 μL. Subsequently, peptides were added to the bacteria from filter sterilized stocks in MQ-H2O to give 8, 32 and 128 μg/ml final concentrations and incubated for 12 hours at 37 °C without shaking. The supernatant was removed and the wells were rinsed with PBS and 100 μL of 1% crystal violet solution (diluted in PBS) was added and the biofilms were stained for 10 minutes. The wells were washed with PBS twice and 200 μL of a 95% ethanol solution in water was added to solubilize the cells for 30 minutes. 100 μL was transferred into a new 96-well plate and the absorbance measured at 595 nm using a Varioskan Lux microplate reader. All individual samples were carried out in […]
All computational studies and analysis steps were performed employing the YASARA molecular modeling program.6, 7
Molecular graphics were created with YASARA (www.yasara.org) and POVRay […]

## H-FLPRDA-NH2 [Compound 22, FLPRDA]
[1]; 128 μg mL^−1, 48 hours, OD600
  decrease in absorbance compared to the control: 22%
[1]; 2 to 128 μg mL^−1, TSB medium, up to 48 hours
  effect on bacterial growth (absorbance plateau, OD600): clear effect on the plateau of the absorbance
S. aureus; 8 μg/ml
  Fluorescence value (Sytox Green, 533 nm): 302.3 ± 0.5
S. aureus; 32 μg/ml
  Fluorescence value (Sytox Green, 533 nm): 297.4 ± 0.3
S. aureus; 128 μg mL^−1, 24 hours
  decrease in fluorescence signal (in words): minor effect
S. aureus; 128 μg/ml
  Fluorescence value (Sytox Green, 533 nm): 275.2 ± 1.1

From article PMC10306101, “Substrate-derived Sortase A inhibitors: targeting an essential virulence factor of Gram-positive pathogenic bacteria” (Chemical Science, 2023)
